Entries after “also recorded” stand apart in the source; their conditions may differ.
Legend:
[1] = toxicity / side effects in HT-29 tumor-bearing mice
Description: (§1) Animals were weighed daily for the first five days of the study and then twice weekly.
(§2) Animals were monitored for adverse treatment-related effects by frequent observation and body-weight (BW) measurements (data not shown).

[2] = tested on: platelet count; assay: Multiple dose study in cancer subjects receiving platinum-based chemotherapy: platelet counts; assay type: in vivo, human; settings: for Maximum Platelet Counts, Geometric Mean: in 10^9/L (unit assumed)
Excerpt: A total of 7 subjects were excluded from the preliminary statistical analysis of Day 42 platelet count data and 9 subjects were excluded from the preliminary statistical analysis of Day 42 hemoglobin data due to either incorrect randomization, platelet transfusion, not administered the 2nd dose of study medication, or lost to follow-up.

[3] = tested on: platelets, reticulocytes, hematocrit; assay: CBC analysis and reticulocyte counts in HT-29 tumor-bearing mice (Groups 6-9); assay type: in vivo, athymic nude mice
Description: Five groups (n=10) of female athymic nude mice (Harlan) bearing established (˜100 mm^3) HT-29 human colon carcinomas on Day 1. Groups 6-9 (n=20) were included for blood sampling and received the same treatment as Groups 1-4, respectively. Treatment effects on the growth of tumors were evaluated by tumor growth delay (TGD), which is the difference between median time to endpoint (TTE) tumor size in a treatment group compared to a control group. […]
Group 1 mice (n=10) were untreated tumor growth controls. Group 2 mice (n=10) received 60 mg/kg carboplatin administered intraperitoneally (i.p.) on Days 1, 2, 12, and 13. Group 3 mice (n=10) received 0.2 mg/kg of the TPO mimetic peptide compound administered intravenously (i.v.) via tail vein on Days 2 and 13. Groups 4 and 5 received the combination of carboplatin (60 mg/kg i.p. on Days 1, 2, 12, and 13) and 0.2 mg/kg of the TPO mimetic peptide compound on Days 2, 13 and Days 2, 13, 23, respectively, administered intravenously (i.v.) one hour after carboplatin dosing. Groups 6-9 (n=20 each) were included for blood sampling and received the same treatments as Groups 1-4, respectively. For all groups, each dose of drug was given in a volume of 0.2 mL per 20 g of body weight (10 mL/kg), and was scaled to the body weight of each animal.
[…] Blood was collected into EDTA tubes, and complete blood counts (CBC) with differential were determined using a Cell-Dyn® 3700 System (Abbott Diagnostics) for automated hematology analyses. Reticulocyte values were determined. In addition, for Groups 1-5, five animals per group were euthanized at or just after endpoint by terminal cardiac puncture under CO2 anesthesia, and gross necropsies were performed. Blood samples were collected into EDTA tubes, and CBC with differential and reticulocyte values were performed as previously described. All other animals in Groups 1-5 were euthanized at endpoint without sampling.

[4] = mouse, in vivo
Description: as §1, §2

**Q.** Which “large spleens in necropsied animals” value ([1]; Group 3) does the source give for “Methoxypolyethyleneglycol20000-propionyl-L-Isoleucyl-L-Glutamyl-Glycyl-L-Prolyl-L-Threonyl-L-Leucyl-L-Arginyl-L-Glutaminyl-L-2-Naphthylalanyl-L-Leucyl-L-Alanyl-L-Alanyl-L-Arginyl-Sarcosyl-Ne-(methoxypolyethyleneglycol20000-propionyl-L-Isoleucyl-L-Glutamyl-Glycyl-L-Prolyl-L-Threonyl-L-Leucyl-L-Arginyl-L-Glutaminyl-L-2-Naphthylalanyl-L-Leucyl-L-Alanyl-L-Alanyl-L-Arginyl-Sarcosyl-)-Lysinamide [TPO mimetic peptide compound]” here?
**A.** Its value is “⅖”.

**Q.** And the “mean BW losses” value ([1]; monotherapy (Group 3))?
**A.** The value was “no mean BW losses”.

**Q.** And the tolerability ([1]; monotherapy (Group 3), 0.2 mg/kg i.v. Days 2, 13)?
**A.** Its tolerability is “well tolerated”.

**Q.** What about the course of platelets ([2]; 1.5 μg/kg dose) of the same substance?
**A.** Its course of platelets is “continued to decline up to Day 15”.

**Q.** And the “platelets as compared to the placebo subjects” value ([2]; 1.5 μg/kg dose)?
**A.** Its value is “no apparent difference”.

**Q.** And the “day of mean peak platelets” value ([2]; 3.0 μg/kg dose)?
**A.** Its value is 15 days.

**Q.** What about the “subjects with platelet increase of more than 3 times the baseline (≧3-fold)” value ([2]; 1.5 and 2.25 μg/kg dose) of the same substance?
**A.** The value was “no subjects; also recorded: none of the subjects”.

**Q.** And the “day of peak platelets” value ([2]; 2.25 and 1.5 μg/kg doses)?
**A.** The value was 21 days.

**Q.** What about the “platelet nadir and peak platelet counts relative to placebo” value ([2]; 2.25 and 3 μg/kg dose) of the same substance?
**A.** Its value is “approximately 2 fold”.

**Q.** And the “day of mean platelet nadir” value ([2]; 2.25 and 3 μg/kg dose groups)?
**A.** Its value is 10 days.

**Q.** What about the “platelet count as compared with placebo” value ([2]; 2.25 and 3 μg/kg doses) of the same substance?
**A.** The value was “reduction in chemotherapy-induced decline in platelets and faster recovery relative to placebo; also recorded: increased platelet count”.

**Q.** And the “Maximum Platelet Counts, GMR (Active/Placebo)” value ([2]; Across, 1.5 μg/kg)?
**A.** The value was 1.0.

**Q.** And the “Minimum Platelet Counts, GMR (Active/Placebo)” value ([2]; Across, 1.5 μg/kg)?
**A.** Its value is 0.6.

**Q.** What about the “Minimum Platelet Counts, Geometric Mean” value ([2]; Across, 1.5 μg/kg) of the same substance?
**A.** The value was 33.99.

**Q.** What about the “Maximum Platelet Counts, Geometric Mean” value ([2]; Across, 1.5 μg/kg) of the same substance?
**A.** Its value is 371.53.

**Q.** And the “Maximum Platelet Counts, GMR (Active/Placebo)” value ([2]; Across, 2.25 μg/kg)?
**A.** The value was 1.6.

**Q.** What about the “Minimum Platelet Counts, GMR (Active/Placebo)” value ([2]; Across, 2.25 μg/kg) of the same substance?
**A.** The value was 2.7.

**Q.** And the “Minimum Platelet Counts, Geometric Mean” value ([2]; Across, 2.25 μg/kg)?
**A.** The value was 163.71.

**Q.** And the “Maximum Platelet Counts, Geometric Mean” value ([2]; Across, 2.25 μg/kg)?
**A.** Its value is 570.39.

**Q.** And the “Maximum Platelet Counts, GMR (Active/Placebo)” value ([2]; Across, 3.0 μg/kg)?
**A.** The value was 1.8.

**Q.** And the “Minimum Platelet Counts, GMR (Active/Placebo)” value ([2]; Across, 3.0 μg/kg)?
**A.** Its value is 2.0.

**Q.** And the “Minimum Platelet Counts, Geometric Mean” value ([2]; Across, 3.0 μg/kg)?
**A.** The value was 121.61.

**Q.** What about the “Maximum Platelet Counts, Geometric Mean” value ([2]; Across, 3.0 μg/kg) of the same substance?
**A.** The value was 633.09.

**Q.** What about the “Maximum Platelet Counts, GMR (Active/Placebo)” value ([2]; Cycle 1, 1.5 μg/kg) of the same substance?
**A.** Its value is 1.1.

**Q.** And the “Minimum Platelet Counts, GMR (Active/Placebo)” value ([2]; Cycle 1, 1.5 μg/kg)?
**A.** Its value is 0.5.

**Q.** What about the “Minimum Platelet Counts, Geometric Mean” value ([2]; Cycle 1, 1.5 μg/kg) of the same substance?
**A.** The value was 47.01.

**Q.** And the “Maximum Platelet Counts, Geometric Mean” value ([2]; Cycle 1, 1.5 μg/kg)?
**A.** Its value is 331.25.

**Q.** What about the “Maximum Platelet Counts, GMR (Active/Placebo)” value ([2]; Cycle 1, 2.25 μg/kg) of the same substance?
**A.** The value was 1.8.

**Q.** What about the “Minimum Platelet Counts, GMR (Active/Placebo)” value ([2]; Cycle 1, 2.25 μg/kg) of the same substance?
**A.** The value was 2.3.

**Q.** What about the “Minimum Platelet Counts, Geometric Mean” value ([2]; Cycle 1, 2.25 μg/kg) of the same substance?
**A.** Its value is 213.46.

**Q.** And the “Maximum Platelet Counts, Geometric Mean” value ([2]; Cycle 1, 2.25 μg/kg)?
**A.** The value was 557.78.

**Q.** And the “Maximum Platelet Counts, GMR (Active/Placebo)” value ([2]; Cycle 1, 3.0 μg/kg)?
**A.** Its value is 2.1.

**Q.** And the “Minimum Platelet Counts, GMR (Active/Placebo)” value ([2]; Cycle 1, 3.0 μg/kg)?
**A.** The value was 2.0.

**Q.** And the “Minimum Platelet Counts, Geometric Mean” value ([2]; Cycle 1, 3.0 μg/kg)?
**A.** Its value is 191.17.

**Q.** And the “Maximum Platelet Counts, Geometric Mean” value ([2]; Cycle 1, 3.0 μg/kg)?
**A.** The value was 641.56.

**Q.** What about the “Maximum Platelet Counts, GMR (Active/Placebo)” value ([2]; Cycle 2, 1.5 μg/kg) of the same substance?
**A.** The value was 1.0.

**Q.** And the “Minimum Platelet Counts, GMR (Active/Placebo)” value ([2]; Cycle 2, 1.5 μg/kg)?
**A.** Its value is 1.0.

**Q.** And the “Minimum Platelet Counts, Geometric Mean” value ([2]; Cycle 2, 1.5 μg/kg)?
**A.** The value was 75.10.

**Q.** What about the “Maximum Platelet Counts, Geometric Mean” value ([2]; Cycle 2, 1.5 μg/kg) of the same substance?
**A.** The value was 290.55.

**Q.** And the “Maximum Platelet Counts, GMR (Active/Placebo)” value ([2]; Cycle 2, 2.25 μg/kg)?
**A.** Its value is 1.4.

**Q.** And the “Minimum Platelet Counts, GMR (Active/Placebo)” value ([2]; Cycle 2, 2.25 μg/kg)?
**A.** The value was 2.2.

**Q.** What about the “Minimum Platelet Counts, Geometric Mean” value ([2]; Cycle 2, 2.25 μg/kg) of the same substance?
**A.** Its value is 175.08.

**Q.** And the “Maximum Platelet Counts, Geometric Mean” value ([2]; Cycle 2, 2.25 μg/kg)?
**A.** The value was 397.37.

**Q.** What about the “Maximum Platelet Counts, GMR (Active/Placebo)” value ([2]; Cycle 2, 3.0 μg/kg) of the same substance?
**A.** Its value is 1.4.

**Q.** And the “Minimum Platelet Counts, GMR (Active/Placebo)” value ([2]; Cycle 2, 3.0 μg/kg)?
**A.** Its value is 2.2.

**Q.** And the “Minimum Platelet Counts, Geometric Mean” value ([2]; Cycle 2, 3.0 μg/kg)?
**A.** The value was 170.16.

**Q.** What about the “Maximum Platelet Counts, Geometric Mean” value ([2]; Cycle 2, 3.0 μg/kg) of the same substance?
**A.** Its value is 401.20.

**Q.** What about the “platelet elevations in the second cycle” value ([2]; all subjects) of the same substance?
**A.** The value was “below 3 times the baseline”.

**Q.** And the “day of maximum effect on platelet count after administration” value ([2]; human, in vivo)?
**A.** The value was 15 days.

**Q.** What about the “increase in platelet count relative to baseline” value ([2]; second cycle, 3.0 μg/kg dose) of the same substance?
**A.** Its value is “approximately 2 fold”.

**Q.** And the “mean reticulocyte values compared to Group 6 controls” value ([3]; Group 8, all time points)?
**A.** The value was “slightly higher”.

**Q.** What about the “mean hematocrit (HCT) values compared to untreated mice (Group 6)” value ([3]; Groups 7-9) of the same substance?
**A.** The value was “similar”.

**Q.** What about the “mean platelet counts compared to untreated Group 6 controls” value ([3]; Groups 7-9, regimens as Groups 2-4, Days 10, 13, 21, and 23) of the same substance?
**A.** Its value is “higher mean platelet counts at all four time points”.

**Q.** And the “treatment-related (TR) deaths” value [4]?
**A.** Its value is “no treatment-related (TR) deaths”.

— patent US20090311344A1, “Dosing Regimen” (priority 2008, published 2009)
